In patent US6737383B1, “Herbicidal oxadiazolidines” (priority 1999, dated 2004):

What was measured:
giant foxtail = experiment: Test B pre/postemergence giant foxtail; type: in vivo, Setaria faberii
In short: (§1)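 Response is a visual 0-to-10 score relative to untreated plants, where 0 means no effect and 10 means complete control, taken twelve to sixteen days after application. Treatments went onto soil at planting and onto foliage of 1- to 4-leaf plants, using a surfactant-containing non-phytotoxic solvent.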

soybean = experiment: Test B pre/postemergence soybean; type: in vivo, Glycine max
In short: as §1

smallflower flatsedge = experiment: Test B flood test smallflower flatsedge; type: in vivo, Cyperus difformis
In short: (§2)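 Each value is a visual injury score relative to controls, with 10 meaning complete control and 0 no effect. Evaluation took place twelve to sixteen days after the 2-leaf-stage plants were treated and kept in the greenhouse.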

purple nutsedge = experiment: Test B pre/postemergence purple nutsedge; type: in vivo, Cyperus rotundus
In short: as §1

bedstraw = experiment: Test B pre/postemergence bedstraw; type: in vivo, Galium aparine
In short: as §1

rice = experiment: Test B flood test rice; type: in vivo, Oryza sativa
In short: as §2

corn = experiment: Test B pre/postemergence corn; type: in vivo, Zea mays
In short: as §1

blackgrass = experiment: Test B pre/postemergence blackgrass; type: in vivo, Alopecurus myosuroides
In short: as §1

duck salad = experiment: Test B flood test duck salad; type: in vivo, Heteranthera limosa
In short: as §2

bamyardgrass = experiment: Test B flood test barnyardgrass; type: in vivo, Echinochloa crus-galli
In short: as §2

rape = experiment: Test B pre/postemergence rape; type: in vivo, Brassica napus
In short: as §1

sugar beet = experiment: Test B pre/postemergence sugar beet; type: in vivo, Beta vulgaris
In short: as §1

velvetleaf = experiment: Test B pre/postemergence velvetleaf; type: in vivo, Abutilon theophrasti
In short: as §1

morningglory = experiment: Test B pre/postemergence morningglory; type: in vivo, Ipomoea hederacea
In short: as §1

surinam grass = experiment: Test B pre/postemergence surinam grass; type: in vivo, Brachiaria decumbens
In short: as §1

pigweed = experiment: Test B pre/postemergence pigweed; type: in vivo, Amaranthus retroflexus
In short: as §1

[1] = Preemergence, Rate 62 g/ha, scale of 0 to 10 where 0 is no effect and 10 is complete control
[2] = Preemergence, Rate 125 g/ha, 0 is no effect, 10 is complete control
[3] = Preemergence, Rate 250 g/ha, scale 0 to 10, 0 is no effect, 10 is complete control
[4] = Preemergence, Rate 500 g/ha, scale 0 to 10 (0 no effect, 10 complete control)
[5] = Rate 62 g/ha, Postemergence, scale of 0 to 10 where 0 is no effect and 10 is complete control
[6] = Rate 125 g/ha, Postemergence, scale 0 to 10
[7] = Rate 500 g/ha, Postemergence, scale 0 to 10
[8] = Rate 62 g/ha, headed Pre-emergence (flood test species), scale 0 to 10 (0 no effect, 10 complete control)
[9] = Rate 125 g/ha, Pre-emergence, flood test species, scale 0 to 10 where 0 is no effect and 10 is complete control
[10] = Rate 250 g/ha, Pre-emergence, flood-test species, scale 0 to 10, 0 is no effect, 10 is complete control
[11] = Rate 500 g/ha, headed Pre-emergence (flood test species), scale 0 to 10 (0 no effect, 10 complete control)

Cc1ccccc1-n1c(=O)on(C(=O)N(c2ccc(-c3ccccc3)cc2)C(C)C)c1=O [Compound 187]
0: Giant foxtail plant response rating (giant foxtail; [1]) | Giant foxtail plant response rating (0 to 10 scale) (giant foxtail; [2]) | Giant foxtail plant response rating (giant foxtail; [3]) | Giant foxtail plant response rating (giant foxtail; [4]) | Giant foxtail plant response rating (giant foxtail; [5]) | Giant foxtail plant response rating (giant foxtail; [6]) | Plant response rating (0 to 10; 0 is no effect, 10 is complete control), Giant foxtail (giant foxtail; Rate 250 g/ha, Postemergence) | Giant foxtail plant response rating (giant foxtail; [7]) | Soybean plant response rating (soybean; [1]) | Soybean plant response rating (0 to 10 scale) (soybean; [2]) | Soybean plant response rating (soybean; [3]) | Soybean plant response rating (soybean; [4]) | Soybean plant response rating (soybean; [5]) | Soybean plant response rating (soybean; [6]) | Plant response rating (0 to 10; 0 is no effect, 10 is complete control), Soybean (soybean; Rate 250 g/ha, Postemergence) | Soybean plant response rating (soybean; [7]) | S. Flatsedge plant response rating (smallflower flatsedge; [8]) | S. Flatsedge plant response rating (smallflower flatsedge; [9]) | S. Flatsedge plant response rating (smallflower flatsedge; [10]) | S. Flatsedge plant response rating (smallflower flatsedge; Rate 500 g/ha, Pre-emergence, flood test species, scale 0 to 10 (0 no effect, 10 complete control)) | Nutsedge plant response rating (purple nutsedge; [1]) | Nutsedge plant response rating (0 to 10 scale) (purple nutsedge; [2]) | Nutsedge plant response rating (purple nutsedge; [3]) | Nutsedge plant response rating (purple nutsedge; [4]) | Nutsedge plant response rating (purple nutsedge; [5]) | Nutsedge plant response rating (purple nutsedge; [6]) | Plant response rating (0 to 10; 0 is no effect, 10 is complete control), Nutsedge (purple nutsedge; Rate 250 g/ha, Postemergence) | Nutsedge plant response rating (purple nutsedge; [7]) | Bedstraw plant response rating (bedstraw; [1]) | Bedstraw plant response rating (0 to 10 scale) (bedstraw; [2]) | Bedstraw plant response rating (bedstraw; [3]) | Bedstraw plant response rating (bedstraw; [4]) | Bedstraw plant response rating (bedstraw; [5]) | Bedstraw plant response rating (bedstraw; [6]) | Plant response rating (0 to 10; 0 is no effect, 10 is complete control), Bedstraw (bedstraw; Rate 250 g/ha, Postemergence) | Bedstraw plant response rating (bedstraw; [7]) | Rice plant response rating (rice; [8]) | Rice plant response rating (rice; [9]) | Rice plant response rating (rice; [10]) | Plant response rating, Rice (rice; [11]) | Corn plant response rating (corn; [1]) | Corn plant response rating (0 to 10 scale) (corn; [2]) | Corn plant response rating (corn; [3]) | Corn plant response rating (corn; [4]) | Corn plant response rating (corn; [5]) | Corn plant response rating (corn; [6]) | Plant response rating (0 to 10; 0 is no effect, 10 is complete control), Corn (corn; Rate 250 g/ha, Postemergence) | Corn plant response rating (corn; [7]) | Blackgrass plant response rating (blackgrass; [1]) | Blackgrass plant response rating (0 to 10 scale) (blackgrass; [2]) | Blackgrass plant response rating (blackgrass; [3]) | Blackgrass plant response rating (blackgrass; [4]) | Blackgrass plant response rating (blackgrass; [5]) | Blackgrass plant response rating (blackgrass; [6]) | Plant response rating (0 to 10; 0 is no effect, 10 is complete control), Blackgrass (blackgrass; Rate 250 g/ha, Postemergence) | Blackgrass plant response rating (blackgrass; [7]) | Ducksalad plant response rating (duck salad; [8]) | Ducksalad plant response rating (duck salad; [9]) | Ducksalad plant response rating (duck salad; [10]) | Plant response rating, Ducksalad (duck salad; [11]) | Barnyardgrass plant response rating (bamyardgrass; [8]) | Barnyardgrass plant response rating (bamyardgrass; [9]) | Barnyardgrass plant response rating (bamyardgrass; [10]) | Plant response rating, Barnyardgrass (bamyardgrass; [11]) | Rape plant response rating (rape; [1]) | Rape plant response rating (0 to 10 scale) (rape; [2]) | Rape plant response rating (rape; [3]) | Rape plant response rating (rape; [4]) | Rape plant response rating (rape; [5]) | Rape plant response rating (rape; [6]) | Plant response rating (0 to 10; 0 is no effect, 10 is complete control), Rape (rape; Rate 250 g/ha, Postemergence) | Rape plant response rating (rape; [7]) | Sugarbeets plant response rating (sugar beet; [1]) | Sugarbeets plant response rating (0 to 10 scale) (sugar beet; [2]) | Sugarbeets plant response rating (sugar beet; [3]) | Sugarbeets plant response rating (sugar beet; [4]) | Sugarbeets plant response rating (sugar beet; [5]) | Sugarbeets plant response rating (sugar beet; [6]) | Plant response rating (0 to 10; 0 is no effect, 10 is complete control), Sugarbeets (sugar beet; Rate 250 g/ha, Postemergence) | Sugarbeets plant response rating (sugar beet; [7]) | Velvetleaf plant response rating (velvetleaf; [1]) | Velvetleaf plant response rating (velvetleaf; [3]) | Velvetleaf plant response rating (velvetleaf; [4]) | Velvetleaf plant response rating (velvetleaf; [5]) | Velvetleaf plant response rating (velvetleaf; [6]) | Plant response rating (0 to 10; 0 is no effect, 10 is complete control), Velvetleaf (velvetleaf; Rate 250 g/ha, Postemergence) | Morningglory plant response rating (morningglory; [1]) | Morningglory plant response rating (0 to 10 scale) (morningglory; [2]) | Morningglory plant response rating (morningglory; [3]) | Morningglory plant response rating (morningglory; [4]) | Morningglory plant response rating (morningglory; [5]) | Morningglory plant response rating (morningglory; [6]) | Plant response rating (0 to 10; 0 is no effect, 10 is complete control), Morningglory (morningglory; Rate 250 g/ha, Postemergence) | Morningglory plant response rating (morningglory; [7]) | B. signalgrass plant response rating (surinam grass; [1]) | B. signalgrass plant response rating (0 to 10 scale) (surinam grass; [2]) | B. signalgrass plant response rating (surinam grass; [3]) | B. signalgrass plant response rating (surinam grass; [4]) | B. signalgrass plant response rating (surinam grass; [5]) | B. signalgrass plant response rating (surinam grass; Rate 125 g/ha, Postemergence, scale 0 (no effect) to 10 (complete control)) | Plant response rating, B. signalgrass (surinam grass; Rate 250 g/ha, Postemergence, scale 0 to 10, 0 is no effect, 10 is complete control) | B. signalgrass plant response rating (surinam grass; Rate 500 g/ha, Postemergence, scale 0 to 10, 0 no effect, 10 complete control) | Redroot pigweed plant response rating (pigweed; [1]) | Redroot pigweed plant response rating (0 to 10 scale) (pigweed; [2]) | Redroot pigweed plant response rating (pigweed; [3]) | Redroot pigweed plant response rating (pigweed; [4]) | Redroot pigweed plant response rating (pigweed; [5]) | Redroot pigweed plant response rating (pigweed; [6]) | Plant response rating (0 to 10; 0 is no effect, 10 is complete control), Redroot pigweed (pigweed; Rate 250 g/ha, Postemergence) | Redroot pigweed plant response rating (pigweed; [7])
